# Assay results as given in US20050049204A1, “Compounds for the treatment of flaviviridae infections” (priority 2003, published 2005).
# Like-named read-outs stand apart in the source and are kept apart here.
# Legend:
# [1] = tested on: HCV-replicon RNA-containing Huh7 cells (HCV RNA); assay: HCV replicon assay: HCV RNA quantified by Q-RT-PCR after 96 h of compound exposure; format: cell-based, hepatitis C virus (HCV); details: for log reduction at 10 µM: read-out: Corrected HCV RNA log10 reduction at 10 μM; for EC90: read from HCV curves corrected for rRNA reduction, read-out: Corrected HCV RNA EC90
# Experimental: (§1) Incubation times differed according to the type of experiment.
# [2] = tested on: rRNA in HCV-replicon RNA-containing Huh7 cells; assay: rRNA levels in HCV replicon cells (cellular toxicity), Q-RT-PCR after 96 h; details: 100 μM
# Experimental: HCV replicon cells were seeded in the presence of test compound at approximately 10^3 cells per well in a 96-well plate and incubated for 96 hours. rRNA and HCV RNA were quantified by Q-RT-PCR. ●: HCV RNA levels; ◯: rRNA levels; ▾: HCV RNA levels after correction (=subtraction of rRNA) for cellular toxicity. […] The plots shown are the mean results of at least three independent experiments. EC90 values as given in Table 1 are read from the HCV curves corrected for cellular toxicity.
# HCV-replicon RNA-containing Huh7 cells (Clone A cells; Apath, LLC, St. Louis, Mo.) were kept in exponential growth in DMEM media (high glucose, no pyruvate) containing 10% fetal bovine serum, 1× non-essential amino acids (100 units/ml), penicillin-streptomycin (100 μg/ml), glutamine (0.292 mg/ml), and G418 (1,000 μg/ml). Antiviral assays were performed in the same medium without G418. […] Cells were seeded in a 6-well plate at 10^5 cells per well. Candidate antiviral compounds were tested as described (Stuyver, et al. “A ribonucleoside analogue that blocks the replication of bovine viral diarrhea and hepatitis C viruses in culture” Antimicrob. Agents Chemother., January 2003, 47 (1), 244-254). Incubation times differed according to the type of experiment. At the end of the incubation step, cells were counted using the trypan-blue exclusion method, and total cellular RNA was isolated (Rneasy 96 kit, Qiagen, CA). Replicon RNA and an internal control (TaqMan Ribosomal RNA Control Reagents, Applied Biosystems, CA) were amplified in a single-step, multiplex RT-PCR protocol, as recommended by the manufacturer and as described (Stuyver, et al. “A ribonucleoside analogue that blocks the replication of bovine viral diarrhea and hepatitis C viruses in culture” Antimicrob. Agents Chemother., January 2003, 47 (1), 244-254).
# Replicon cells were incubated in the absence or presence of these anti-metabolites for 96 hours, after which intracellular rRNA and HCV RNA levels were quantified (Table 1).
# [3] = tested on: HCV replicon RNA in Huh7 cells; assay: Reversal studies with natural nucleosides: HCV RNA; format: cell-based, hepatitis C virus (HCV); details: for log10 reduction HCV: no nucleoside
# Experimental: as §1
# (§2) Cells were incubated with the test compound and, simultaneously, the natural ribo- or 2′-deoxy nucleosides (adenosine, guanosine (G), cytidine (C), uridine (U), 2′-deoxycytidine (dC), 2′-deoxyuridine, thymidine, 2′-deoxyguanosine (dG), and 2′-deoxyadenosine) (Table 2).
# [4] = tested on: HCV replicon-containing Huh7 cell line; assay: Dynamics of replicon cell growth (cell count) over a 7-day period; details: 20 μM, 7-day period
# [5] = tested on: rRNA in HCV replicon Huh7 cells; assay: Reversal studies with natural nucleosides: rRNA; format: cell-based; details: for log10 reduction rRNA: no nucleoside
# Experimental: as §1, §2
# [6] = tested on: HCV replicon RNA in Huh7 cells; assay: HCV RNA levels in replicon cells over a 7-day period; format: cell-based, hepatitis C virus (HCV); details: 20 μM, 7-day period
# [7] = Hepatitis C virus, Huh-7, 96 h, read-out: Corrected HCV RNA log10 reduction at 100 μM
# [8] = Hepatitis C virus, Huh-7, 96 h, corrected by subtraction of rRNA
# [9] = 96 h, corrected by subtraction of rRNA
# [10] = 100 μM, 96 h, corrected by subtraction of rRNA
SMILES,"log reduction at 100 µM [1, 7]","EC90 ([1]; Hepatitis C virus, Huh-7, 96 h) [µM]",Log10 RNA reduction (100 μM) rRNA [2] [log10],"Corrected HCV RNA log10 reduction at 10 μM [1, 9] [log10]",further results
"NC(=O)NO [Hydroxy Urea, hydroxy urea]",-0.08 ± 0.16,> 100,0.25 ± 0.20,–,"log reduction at 10 µM [1, 8]: 0.06 ± 0.04; specific inhibition of the replicon ([1]; RNR inhibitors tested): none"
"O=c1[nH]c(=O)n([C@H]2C[C@H](O)[C@@H](CO)O2)cc1F [2′-deoxy-5FU, 2′-deoxy-5-fluorouridine]",0.04 ± 0.25,> 100,0.73 ± 0.35,0.23 ± 0.05,–
O=c1cnn([C@@H]2O[C@H](CO)[C@@H](O)[C@H]2O)c(=S)[nH]1 [2-thio-6-azauridine],–,–,−0.02 ± 0.12,0.12 ± 0.10,"Log10 RNA reduction (100 μM) HCV ([1]; 100 μM, 96 h): 0.16 ± 0.04 log10; Corrected HCV RNA log10 reduction at 100 μM [1, 10]: 0.19 ± 0.09 log10; EC90 ([1]; 96 h): > 100 µM; effect on cytoplasmic HCV RNA metabolism ([1]; replicon system): little effect"
NC(=O)c1ncn([C@@H]2O[C@H](CO)[C@@H](O)[C@H]2O)c1O [Mizoribine],0.08 ± 0.82,> 100,0.21 ± 0.50,−0.14 ± 0.12,–
"COc1c(C)c2c(c(O)c1C/C=C(\C)CCC(=O)O)C(=O)OC2 [MPA, mycophenolic acid]",0.07 ± 0.47,> 100,1.09 ± 0.28,0.22 ± 0.01,–
"C[C@@]1(O)[C@H](O)[C@@H](CO)O[C@H]1n1cnc2c(N)ncnc21 [2′C—CH3-A, 2′-C-methyl-adenosine]",–,< 1,2.96 ± 0.08,–,"log reduction at 10 µM [1, 8]: 2.05; log reduction at 100 µM ([1]; Hepatitis C virus, Huh-7, 100 μM, 96 h, corrected by subtraction of rRNA, read-out: Corrected HCV RNA log10 reduction at 100 μM): -0.64 ± 0.18; log reduction at 100 µM ([1]; Hepatitis C virus, Huh-7, 100 μM, 96 h, read-out: Log10 RNA reduction (100 μM) HCV): 2.32 ± 0.11; log10 reduction HCV ([3]; 100 μM): 2.32 ± 0.11 log10; effect on cell proliferation [4]: minimal; log10 reduction rRNA ([5]; 100 μM): 2.96 ± 0.08 log10; reducing the HCV RNA levels [6]: very potent"
"Nc1ccn([C@@H]2C=C(CO)[C@@H](O)[C@H]2O)c(=O)n1 [CPE-C, cyclopentenyl-cytosine]",–,2.5,1.21 ± 0.16,–,log10 reduction HCV including natural nucleoside ([3]; 2 μM + C at 50 μM): 0.30 ± 0.06 log10; log10 reduction HCV including natural nucleoside ([3]; 2 μM + U at 50 μM): 0.58 ± 0.04 log10; log10 reduction HCV ([3]; 2 μM): 1.76 ± 0.04 log10; log10 reduction rRNA including natural nucleoside ([5]; 2 μM + C at 50 μM): −0.04 ± 0.01 log10; log10 reduction rRNA including natural nucleoside ([5]; 2 μM + U at 50 μM): 0.32 ± 0.03 log10; log10 reduction rRNA ([5]; 2 μM): 0.99 ± 0.04 log10
COc1c(C)c2c(c(O)c1CCOP(=O)(O)CP(=O)(O)OC[C@H]1O[C@@H](n3cnc4c(N)ncnc43)[C@H](O)[C@@H]1O)C(=O)OC2 [Compound C2-MAD],–,–,1.00 ± 0.15,0.36 ± 0.21,"Log10 RNA reduction (100 μM) HCV ([1]; 100 μM, 96 h): 1.09 ± 0.21 log10; Corrected HCV RNA log10 reduction at 100 μM [1, 10]: 0.08 ± 0.24 log10; EC90 ([1]; 96 h): > 100 µM"
